Experiments:
[1] = target: recombinant RORγ Ligand Binding Domain (LBD) protein (Homo sapiens (Human), UniProt P51449); experiment: Radio-Ligand RORγ Binding Assay (Assay 1); conditions: radio-ligand 25-hydroxy [26,27-3H]-cholesterol competition
Protocol: Radio-Ligand RORγ Binding Assay (Assay 1)
Compounds described herein were tested for ability to bind to RORγ in a cell-free competition assay with commercially available radio-ligand (RL), 25-hydroxy [26,27-^3H]-cholesterol (PerkinElmer, Cat. # NET674250UC), for a ligand binding site on a recombinant RORγ Ligand Binding Domain (LBD) protein expressed as a 6×His-Glutathione-S-Transferase (GST) fusion. […] The plate was shaken at 700 rpm for 20 min and incubated for 10 min at rt, after which 40 μL of poly-Lys YSi SPA beads (PerkinElmer, Cat. # RPNQ0010) were added to achieve 50 μg of the beads per well. The plate was incubated on an orbital shaker for 20 min and then for 10 min without agitation at rt. SPA signal for tritium beta radiation was registered on PerkinElmer Microbeta plate reader. […] The percent inhibition vs. concentration data were fit into a four-parameter model, and IC50 values were calculated from the fit as the concentrations corresponding to the inflection points on the dose-response curves. […]

[2] = target: full-length RORγt in Jurkat cells (Homo sapiens (Human), UniProt P51449); experiment: RORγt 5×RORE Assay in Jurkat Cells (Assay 2); assay type: cell-based; conditions: RORγt 5×RORE Nanoluc reporter
Protocol: [formula] RORγt 5×RORE Assay in Jurkat Cells (Assay 2)
Compounds described herein were tested for RORγ inverse agonist activity in a cell-based, transcriptional activity assay. […] (Promega, Cat. # N1021) using KpnI and HindIII restriction sites. […] Tested compounds were added to the cells in the same media (final concentration of DMSO was 0.1% (v/v)), and the plates were incubated at 37° C./5% CO2 for 16-18 hrs. Luciferase activity in the conditioned supernatants was determined with NanoGlo® assay reagents (Promega, Cat.# N1130).

Sequence of recombinant RORγ Ligand Binding Domain (LBD) protein (P51449 269-508): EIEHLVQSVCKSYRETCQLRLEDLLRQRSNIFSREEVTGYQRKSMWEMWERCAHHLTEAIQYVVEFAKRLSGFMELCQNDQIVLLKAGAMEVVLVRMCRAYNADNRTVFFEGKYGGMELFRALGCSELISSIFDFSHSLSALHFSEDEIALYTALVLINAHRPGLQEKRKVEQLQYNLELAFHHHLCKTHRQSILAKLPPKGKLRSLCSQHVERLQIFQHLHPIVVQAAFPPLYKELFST
Sequence of full-length RORγt in Jurkat cells (P51449 other isoform, or with tags, fused parts or gaps): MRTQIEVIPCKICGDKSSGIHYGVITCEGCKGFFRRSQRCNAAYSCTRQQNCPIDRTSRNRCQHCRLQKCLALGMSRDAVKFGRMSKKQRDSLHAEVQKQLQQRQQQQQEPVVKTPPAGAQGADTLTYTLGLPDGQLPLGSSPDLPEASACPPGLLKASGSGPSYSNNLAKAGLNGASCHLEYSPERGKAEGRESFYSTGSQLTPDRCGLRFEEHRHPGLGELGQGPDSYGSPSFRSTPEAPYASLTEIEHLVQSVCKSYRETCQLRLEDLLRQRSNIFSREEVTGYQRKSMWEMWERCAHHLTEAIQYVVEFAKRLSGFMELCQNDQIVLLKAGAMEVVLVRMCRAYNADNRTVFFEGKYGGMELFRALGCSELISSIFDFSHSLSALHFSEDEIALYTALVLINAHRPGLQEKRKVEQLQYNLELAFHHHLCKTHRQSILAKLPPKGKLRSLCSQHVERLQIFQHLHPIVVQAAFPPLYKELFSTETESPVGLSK

Structure (SMILES) | Ki [1] | IC50 [2]
CCS(=O)(=O)c1ccc(CNC(=O)c2ccc3c(c2)nc(Oc2ccc(C(F)(F)F)cc2)n3C2CC2)cc1 [BE-6, 1-cyclopropyl-N-(4-(ethylsulfonyl)benzyl)-2-(4-(trifluoromethyl)phenoxy)-1H-benzo[d]imidazole-5-carboxamide] | < 100 nM | < 100 nM
CCn1c(Cc2ccc(C(F)(F)F)cn2)cc2cc(C(=O)N[C@@H](CO)c3ccc(S(=O)(=O)CC)cc3)ccc21 [IN-9, (R)-1-ethyl-N-(1-(4-(ethylsulfonyl)phenyl)-2-hydroxyethyl)-2-((5-(trifluoromethyl)pyridin-2-yl)methyl)-1H-indole-5-carboxamide] | < 100 nM | < 100 nM
CS(=O)(=O)c1ccc(CNC(=O)c2ccc3c(c2)nc(C[C@H]2CC[C@H](C(F)(F)F)CC2)n3C2CC2)cc1 [BE-30, 1-cyclopropyl-N-(4-(methylsulfonyl)benzyl)-2-(((1r,4r)-4-(trifluoromethyl)cyclohexyl)methyl)-1H-benzo[d]imidazole-5-carboxamide] | < 100 nM | < 100 nM
CNS(=O)(=O)c1ccc(CNC(=O)c2ccc3c(c2)nc(C[C@H]2CC[C@H](C(F)(F)F)CC2)n3C2CC2)cc1 [BE-33, 1-cyclopropyl-N-(4-(N-methylsulfamoyl)benzyl)-2-(((1r,4r)-4-(trifluoromethyl)cyclohexyl)methyl)-1H-benzo[d]imidazole-5-carboxamide] | < 100 nM | < 100 nM
CS(=O)(=O)c1ccc([C@H](CO)NC(=O)c2ccc3c(c2)nc(C[C@H]2CC[C@H](C(F)(F)F)CC2)n3C2CC2)cc1 [BE-32, 1-cyclopropyl-N-((R)-2-hydroxy-1-(4-(methylsulfonyl)phenyl)ethyl)-2-(((1r,4R)-4-(trifluoromethyl)cyclohexyl)methyl)-1H-benzo[d]imidazole-5-carboxamide] | < 100 nM | < 100 nM
CNS(=O)(=O)c1ccc(CNC(=O)c2ccc3c(c2)nc(C[C@H]2CC[C@H](C(F)(F)F)CC2)n3C2CC2)nc1 [BE-31, 1-cyclopropyl-N-((5-(N-methylsulfamoyl)pyridin-2-yl)methyl)-2-(((1r,4r)-4-(trifluoromethyl)cyclohexyl)methyl)-1H-benzo[d]imidazole-5-carboxamide] | < 100 nM | > 1000 nM
CCS(=O)(=O)c1ccc(CNC(=O)c2cnc3c(c2)nc(Cc2ccc(C(F)(F)F)cc2)n3C2CC2)cc1 [AB-3, 3-cyclopropyl-N-(4-(ethylsulfonyl)benzyl)-2-(4-(trifluoromethyl)benzyl)-3H-imidazo[4,5-b]pyridine-6-carboxamide] | < 100 nM | < 100 nM
CCS(=O)(=O)c1ccc(CNC(=O)c2ccc3c(c2)nc(Cc2ccc(C(F)(F)F)cc2)n3CC(C)C)nc1 [BE-43, N-((5-(ethylsulfonyl)pyridin-2-yl)methyl)-1-isobutyl-2-(4-(trifluoromethyl)benzyl)-1H-benzo[d]imidazole-5-carboxamide] | < 100 nM | –
CCn1c(Cc2cccc(OC(F)F)c2)cc2cc(C(=O)N[C@@H](CO)c3ccc(S(=O)(=O)CC)cn3)ccc21 [IN-7, (R)-2-(3-(difluoromethoxy)benzyl)-1-ethyl-N-(1-(5-(ethylsulfonyl)pyridin-2-yl)-2-hydroxyethyl)-1H-indole-5-carboxamide] | < 100 nM | –
CCS(=O)(=O)c1ccc([C@@H](CO)NC(=O)c2ccc3c(c2)nc(C[C@H]2CC[C@H](C(F)(F)F)CC2)n3C2CC2)nc1 [BE-29, 1-cyclopropyl-N-((S)-1-(5-(ethylsulfonyl)pyridin-2-yl)-2-hydroxyethyl)-2-(((1r,4S)-4-(trifluoromethyl)cyclohexyl)methyl)-1H-benzo[d]imidazole-5-carboxamide] | > 1000 nM | –
CCS(=O)(=O)c1ccc(CNC(=O)c2ccc3c(c2)nc(C(=O)C2CCC(C(F)(F)F)CC2)n3C2CC2)cc1 (stereo not drawn) [BE-64, 1-cyclopropyl-N-(4-(ethylsulfonyl)benzyl)-2-(4-(trifluoromethyl)cyclohexane-1-carbonyl)-1H-benzo[d]imidazole-5-carboxamide] | < 100 nM | –
C=C(C)Cn1c(Cc2ccc(C(F)(F)F)cc2)cc2cc(C(=O)NCc3ccc(S(=O)(=O)CC)cc3)cnc21 [AI-3, N-(4-(ethylsulfonyl)benzyl)-1-(2-methylallyl)-2-(4-(trifluoromethyl)benzyl)-1H-pyrrolo[2,3-b]pyridine-5-carboxamide] | < 100 nM | –
CS(=O)(=O)c1ccc(CNC(=O)c2cnc3c(c2)nc(Cc2ccc(C(F)(F)F)cc2)n3C2CC2)cc1 [AB-2, 3-cyclopropyl-N-(4-(methylsulfonyl)benzyl)-2-(4-(trifluoromethyl)benzyl)-3H-imidazo[4,5-b]pyridine-6-carboxamide] | 100 to 1000 nM | –
CCS(=O)(=O)c1ccc(CNC(=O)c2ccc3c(c2)nc(Cc2ccc(C(F)(F)F)cc2)n3C2CCC2)cc1 [BE-38, 1-cyclobutyl-N-(4-(ethylsulfonyl)benzyl)-2-(4-(trifluoromethyl)benzyl)-1H-benzo[d]imidazole-5-carboxamide] | < 100 nM | –
CCn1c(Oc2ccc(C(F)(F)F)cc2)nc2cc(C(=O)N[C@@H](CN(C)C)c3ccc(S(=O)(=O)CC)cc3)ccc21 [BE-10, (R)-N-(2-(dimethylamino)-1-(4-(ethylsulfonyl)phenyl)ethyl)-1-ethyl-2-(4-(trifluoromethyl)phenoxy)-1H-benzo[d]imidazole-5-carboxamide] | 100 to 1000 nM | –

Continued, in another order:

Ki [1] | Structure (SMILES) | IC50 [2]
< 100 nM | CCn1c(O[C@H]2CC[C@H](C(F)(F)F)CC2)nc2cc(C(=O)NCc3ccc(S(=O)(=O)CC)cc3)ccc21 [BE-2, 1-ethyl-N-(4-(ethylsulfonyl)benzyl)-2-(((1r,4r)-4-(trifluoromethyl)cyclohexyl)oxy)-1H-benzo[d]imidazole-5-carboxamide] | < 100 nM
< 100 nM | CCn1c(Cc2ccc(C(F)(F)F)cc2)cc2cc(C(=O)NCc3ccc(S(=O)(=O)CC)cn3)ccc21 [IN-2, 1-ethyl-N-((5-(ethylsulfonyl)pyridin-2-yl)methyl)-2-(4-(trifluoromethyl)benzyl)-1H-indole-5-carboxamide] | < 100 nM
< 100 nM | CCS(=O)(=O)c1ccc(CNC(=O)c2ccc3c(c2)nc(C[C@H]2CC[C@H](C(F)(F)F)CC2)n3C2CC2)cc1 [BE-18.1, 1-cyclopropyl-N-(4-(ethylsulfonyl)benzyl)-2-((trans-4-(trifluoromethyl)cyclohexyl)methyl)-1H-benzo[d]imidazole-5-carboxamide] | < 100 nM
100 to 1000 nM | CCS(=O)(=O)c1ccc(CNC(=O)c2cc(Br)c3c(c2)nc(C[C@H]2CC[C@H](C(F)(F)F)CC2)n3C)cc1 [BE-58, 7-bromo-N-(4-(ethylsulfonyl)benzyl)-1-methyl-2-(((1r,4r)-4-(trifluoromethyl)cyclohexyl)methyl)-1H-benzo[d]imidazole-5-carboxamide] | –
100 to 1000 nM | CCn1c(CC2CCC(C(F)(F)F)OC2)nc2cc(C(=O)NCc3ccc(S(=O)(=O)CC)cc3)ccc21 (single isomer, unassigned) [BE-56.3, 1-ethyl-N-(4-(ethylsulfonyl)benzyl)-2-((6-(trifluoromethyl)tetrahydro-2H-pyran-3-yl)methyl)-1H-benzo[d]imidazole-5-carboxamide] | –
100 to 1000 nM | CCS(=O)(=O)c1ccc(CNC(=O)c2cc(Br)c3c(c2)nc(Cc2ccc(C(F)(F)F)cc2)n3C)cc1 [BE-59, 7-bromo-N-(4-(ethylsulfonyl)benzyl)-1-methyl-2-(4-(trifluoromethyl)benzyl)-1H-benzo[d]imidazole-5-carboxamide] | –
100 to 1000 nM | CCn1c(CC2CCC(C(F)(F)F)OC2)nc2cc(C(=O)NCc3ccc(S(=O)(=O)CC)cc3)ccc21 (single isomer, unassigned) [BE-56.1, 1-ethyl-N-(4-(ethylsulfonyl)benzyl)-2-((6-(trifluoromethyl)tetrahydro-2H-pyran-3-yl)methyl)-1H-benzo[d]imidazole-5-carboxamide] | –
100 to 1000 nM | CCn1c(CC2CCC(C(F)(F)F)OC2)nc2cc(C(=O)NCc3ccc(S(=O)(=O)CC)cc3)ccc21 (single isomer, unassigned) [BE-56.2, 1-ethyl-N-(4-(ethylsulfonyl)benzyl)-2-((6-(trifluoromethyl)tetrahydro-2H-pyran-3-yl)methyl)-1H-benzo[d]imidazole-5-carboxamide] | –
< 100 nM | CCS(=O)(=O)c1ccc(CC(=O)Nc2ccc3c(c2)nc(Cc2ccc(C(F)(F)F)cc2)n3CC(C)C)cc1 [BE-68, 2-(4-(ethylsulfonyl)phenyl)-N-(1-isobutyl-2-(4-(trifluoromethyl)benzyl)-1H-benzo[d]imidazol-5-yl)acetamide] | –
< 100 nM | CCn1c(Cc2ccc(OC(F)F)cc2)cc2cc(C(=O)N[C@@H](CO)c3ccc(S(=O)(=O)CC)cn3)ccc21 [IN-6, (R)-2-(4-(difluoromethoxy)benzyl)-1-ethyl-N-(1-(5-(ethylsulfonyl)pyridin-2-yl)-2-hydroxyethyl)-1H-indole-5-carboxamide] | –
